pIC50: −log10 of the molar value.
Key:
[1] = test system: endogenous SK in human umbilical vein endothelial cells (HUVECs); experiment: Cell-based [3H]sphingosine to [3H]S1P assay of endogenous SK activity, HUVECs; conditions: for cellular levels of [3H]S1P: 24 hours treatment, FIG. 3
Procedure: FIG. 2. […] Values represent the mean±sd SK activity in triplicate samples in a typical experiment. FIG. 3. […] HUVECs were treated with the indicated concentrations of Compound I, II or V for 24 hours. SK activity was measured by adding [^3H]sphingosine and determining its conversion to [3H]S1P. Values represent the mean±SD of duplicate samples. A cell-based assay in which the phosphorylation of exogenously added [^3H]sphingosine to [^3H]S1P by endogenous SK can be quantified (French et al., Cancer Res 63: 5962 (2003)) was used to evaluate the effects of test compounds on the activity of SK in intact cells. In this assay, cells are incubated with [^3H]sphingosine for an appropriate period of time, and then [^3H]sphingosine and [^3H]S1P (formed by endogenous SK activity) are separated by extraction and levels of both species are determined by scintillation counting. […] For example, human umbilical vein endothelial cells (HUVECs) are commonly used as a model of human vasculature. Additionally, rat IEC6 cells are commonly used as a model of intestinal epithelial cells. […] Specifically, HUVECs, human chondrocytes (HC), and human synovial cells from a patient with RA (HFLS-RA) were examined.

[2] = test system: HL-60 (human promyelocytic leukemia) cells; experiment: TNFα-induced HL-60 cell proliferation; type: cell-based; conditions: 25 ng TNFα/ml, 72 hours
Procedure: FIG. 6. Inhibition of TNFα-induced HL-60 cell proliferation by SK inhibitors. HL-60 cells were serum-starved for 18 hours and then left untreated (▴) or treated with 25 ng of TNFα/ml (▾) in the presence of the indicated concentrations of Compound I, II or V. After 72 hours, the number of cells in each treatment group was quantified.
As discussed above, aberrant activation of leukocytes is a central feature of many inflammatory diseases. Because of the roles of S1P in promoting leukocyte proliferation, we examined the effects of several SK inhibitors on the proliferation of HL-60 (human promyelocytic leukemia) cells. […] Compound I was particularly effective, completely blocking the effects of TNFα at concentrations of 0.2 μM or greater.

[3] = test system: female DBA/1 mice, Collagen-Induced Arthritis; experiment: Collagen-Induced Arthritis (CIA) model; type: in vivo; conditions: Day 12; ABC294640 100 mg/kg, ABC747080 50 mg/kg oral
[4] = test system: endogenous SK in rat IEC6 cells; experiment: Cell-based [3H]sphingosine to [3H]S1P assay of endogenous SK activity, rat IEC6 cells; conditions: FIG. 2A
Procedure: FIG. 2. […] Values represent the mean±sd SK activity in triplicate samples in a typical experiment. A cell-based assay in which the phosphorylation of exogenously added [^3H]sphingosine to [^3H]S1P by endogenous SK can be quantified (French et al., Cancer Res 63: 5962 (2003)) was used to evaluate the effects of test compounds on the activity of SK in intact cells. In this assay, cells are incubated with [^3H]sphingosine for an appropriate period of time, and then [^3H]sphingosine and [^3H]S1P (formed by endogenous SK activity) are separated by extraction and levels of both species are determined by scintillation counting. […] For example, human umbilical vein endothelial cells (HUVECs) are commonly used as a model of human vasculature. Additionally, rat IEC6 cells are commonly used as a model of intestinal epithelial cells.

[5] = test system: ICAM-1 and VCAM-1 in human endothelial cells; experiment: TNFα-induced adhesion molecule expression (Western analysis); type: cell-based; conditions: TNFα 100 ng/mL, 6 hours
Procedure: Like endothelial cells in the body, HUVECs will proliferate in response to several growth factors, and will respond to inflammatory cytokines such as TNFα and IL-1β. Western analyses were conducted with human endothelial cells to evaluate the effects of the SK inhibitors on signaling proteins known to be regulated by TNFα. […] Cell lysates from treated cells were assayed for the adhesion molecules ICAM-1 and VCAM-1. TNFα caused marked increases in the expression levels of adhesion proteins involved in leukocyte recruitment, including ICAM-1 and VCAM-1.

[6] = test system: mice, chronic DSS-colitis; experiment: Chronic (35-day) DSS-colitis model of IBD; type: in vivo; conditions: for colon length: Day 35, 50 mg/kg oral daily for 7 days, DSS alone 4.9±0.2, water 7.8±0.3; for serum level of IL-6: at time of sacrifice; for increase in DAI: third DSS exposure, 50 mg/kg oral daily Day 28-35, P<0.001 on Day 35; for colonic levels of pro-inflammatory cytokines TNFα, IL-1β, IFN-γ and IL-6: treated during the final DSS cycle, 50 mg/kg oral
human sphingosine kinase = experiment: Screening assay for inhibitors of SK; type: biochemical; conditions: library screen
Description: An assay for screening for inhibitors of SK has been established (French et al., Cancer Res 63: 5962 (2003)). […] Representative active compounds from four chemotypes of SK inhibitors, designated herein as Compounds I-IV, are shown in FIG. 1.

NFκB = experiment: TNFα-induced NFκB luciferase reporter assay in fibroblasts; type: cell-based; conditions: TNFα for 6 hours, FIG. 4
Procedure: FIG. 4. Inhibition of TNFα-induced activation of NFκB by ABC294640. Fibroblasts transfected with a TNFα-responsive promoter linked to luciferase were treated with the indicated concentrations of ABC294640 and then treated with TNFα for 6 hours. The amount of luciferase expressed by the cells was then measured by luminescence. Values represent the mean±sd luciferase activity in triplicate samples in a typical experiment.

[7] = test system: Cox-2 activity (PGE2 production) in human endothelial cells; experiment: TNFα-induced Cox-2 activity (PGE2 ELISA), human endothelial cells; type: cell-based; conditions: 10 μg/mL compound, 100 ng TNFα/mL, 18 hours
[8] = test system: male Lewis rats, adjuvant-induced arthritis; experiment: Adjuvant-induced arthritis model; type: in vivo; conditions: 5, 35, 100 mg/kg oral daily, 10 days
Procedure: FIG. 18. Effects of ABC294640 on disease progression in the adjuvant-induced arthritis model in rats. Male Lewis rats were injected subcutaneously with Mycobacterium butyricum, and symptoms of immune reactivity were present after 2 weeks. Responsive rats were randomized into treatment groups (n=8 per group), and received oral daily doses of: solvent alone (0.375% Tween-80); 100 mg/kg ABC294640; 35 mg/kg ABC294640; or 5 mg/kg ABC294640, or intraperitoneal injections of indomethacin (5 mg/kg) every other day. The severity of disease in each animal was quantified by measurement of the hind paw thickness. Panel A. Time course of hind paw arthritic response. Panel B. Final day (Day 10) hind paw thickness measurements. Panel C. Change in paw thickness of respective group versus non-arthritic rats (naive) at Day 10. *, p<0.05; ***, p<0.001 versus solvent alone group.
Adjuvant-induced arthritis is another widely used assay that recapitulates many features of human rheumatoid arthritis, and so is useful in the evaluation of new drug candidates. Age- and weight-matched male Lewis rats (150-170 g) were injected subcutaneously in the tail with 1 mg of Mycobacterium butyricum (Difco, killed dried) suspended in 0.1 ml of light mineral oil. Symptoms of immune reactivity were present after 2 weeks. […] The severity of disease in each animal was quantified by measurement of the hind paw thickness. […]

[9] = test system: female Swiss-Webster mice; conditions: mouse, in vivo
Procedure: The compounds are soluble to at least 15 mg/ml in 50% dimethylsulfoxide: 50% phosphate-buffered saline (DMSO:PBS) for intraperitoneal (IP) administration or Polyethylene glycol-400 (PEG400) for oral dosing.

[10] = test system: male C57BL/6 mice, DSS-colitis; experiment: Acute DSS-colitis model of IBD; type: in vivo; conditions: 2% DSS, 50 mg/kg oral daily; for Disease Activity Index (DAI): Days 4-6
physchem = conditions: aqueous with cosolvent or surfactant or cyclodextrin
[11] = test system: Cox-2 activity (PGE2 production) in IEC6 rat intestinal epithelial cells; experiment: TNFα-induced Cox-2 activity (PGE2 ELISA), IEC6 cells; type: cell-based; conditions: 10 μg/mL compound, 100 ng TNFα/mL, 18 hours
[12] = test system: endogenous SK in human chondrocytes (HC); experiment: Cell-based S1P formation assay, human chondrocytes; conditions: HCs; read-out: drug concentration that decreases S1P formation by 50%
Procedure: (§1) A cell-based assay in which the phosphorylation of exogenously added [^3H]sphingosine to [^3H]S1P by endogenous SK can be quantified (French et al., Cancer Res 63: 5962 (2003)) was used to evaluate the effects of test compounds on the activity of SK in intact cells. In this assay, cells are incubated with [^3H]sphingosine for an appropriate period of time, and then [^3H]sphingosine and [^3H]S1P (formed by endogenous SK activity) are separated by extraction and levels of both species are determined by scintillation counting. We have used a number of cell lines in this assay to confirm that the SK inhibitors are active in multiple intact cell systems. For example, human umbilical vein endothelial cells (HUVECs) are commonly used as a model of human vasculature. Additionally, rat IEC6 cells are commonly used as a model of intestinal epithelial cells.
(§2) Specifically, HUVECs, human chondrocytes (HC), and human synovial cells from a patient with RA (HFLS-RA) were examined.

[13] = test system: endogenous SK in human synovial cells from a patient with RA (HFLS-RA); experiment: Cell-based S1P formation assay, HFLS-RA cells; conditions: read-out: drug concentration that decreases S1P formation by 50%
Procedure: as §1, §2

With `O=C1C(=Cc2ccc(O)c(O)c2)Oc2ccccc21` [V] the “cellular levels of [3H]S1P” value ([1]; HUVECs) was “dose-dependent reductions in the cellular levels of S1P” and the “HL-60 cell proliferation of TNFα-stimulated cells” value [2] was “dose-dependent reductions in HL-60 cell proliferation”.

In the case of `O=C(NCc1ccncc1)C12CC3CC(C1)CC(c1ccc(Cl)cc1)(C3)C2` [ABC294640], the “histologic damage of tibiotarsal joints” value [3] was “significantly reduced histologic damage”, the “SK activity ([3H]S1P formation)” value [4] was “dose-dependent suppression of SK activity” and the “SK activity ([3H]S1P formation)” value ([1]; human endothelial cells, FIG. 2B) was “dose-dependent suppression of SK activity”. For the same molecule, the “TNFα induction of ICAM-1 and VCAM-1” value ([5]; 25 μM compound) was “completely abrogated”, the “TNFα-induced expression of ICAM-1 and VCAM-1” value [5] was “inhibited” and the “SK expression in the colon (immunohistochemistry)” value ([6]; DSS treated mice) was “clearly reduced”. The colon length [6] was 6.2±0.2 cm, the “serum level of IL-6” value [6] was “reduced the serum level of IL-6” and the “colonic S1P levels” value ([6]; oral 50 mg/kg daily, 7 days prior to sacrifice) was “significant reductions of S1P levels”. The “increase in DAI” value [6] was “significantly suppressed the increase in DAI”, the “colonic levels of pro-inflammatory cytokines TNFα, IL-1β, IFN-γ and IL-6” value [6] was “reduced levels of the pro-inflammatory cytokines” and the “inhibition of SK” value (human sphingosine kinase) was “inhibit SK”. For the same molecule, the “activation of NFκB by TNFα (luciferase)” value (NFκB) was “dose-dependently suppressed”, the “induction of Cox-2 activity by TNFα (PGE2 production)” value [7] was “strongly suppressed” and the “arthritic response (paw thickness)” value [8] was “inhibited this arthritic response in a dose-dependent manner”. For the same molecule, the “dose with no immediate or delayed toxicity” value ([9]; ip) was “at least 50 mg/kg”, the “dose without noticeable toxicity” value ([9]; po) was “at least 100 mg/kg” and the colon length ([10]; Day 6) was “colons of intermediate length”. The “colonic S1P levels (LC-MS/MS)” value ([10]; Day 6) was “markedly lower levels of colonic S1P”, the “histological examination of colon sections” value ([10]; Day 6) was “no or mild crypt damage, no or low levels of inflammatory cell infiltration and no edema in the submucosa” and the “increase in colonic myeloperoxidase (MPO) activity” value ([10]; Day 6) was “markedly attenuated”. For the same molecule, the “Disease Activity Index (DAI)” value [10] was “reduced the intensity of the IBD manifestations”, the solubility (physchem) was ≥ 15 mg/mL and the “induction of Cox-2 activity by TNFα (PGE2 production)” value [11] was “strongly suppressed”.

For `O=C(O)c1cc(/N=N/c2ccc(O)c(C(=O)O)c2)ccc1O` [Dipentum, reference compound], the colon length [6] was 6.1±0.2 cm, the “serum level of IL-6” value [6] was “reduced the serum level of IL-6” and the “increase in DAI” value [6] was “significantly suppressed the increase in DAI”. The “colonic levels of pro-inflammatory cytokines TNFα, IL-1β, IFN-γ and IL-6” value [6] was “cytokine profiles equivalent to the DSS-alone group”, the “colon Histology Score” value ([10]; Day 6) was “consistently lower than the DSS-alone animals” and the colon length ([10]; Day 6) was “colons of intermediate length”. For the same molecule, the “elevations of colonic pro-inflammatory proteins IFN-γ, IL-1β, IL-6 and TNFα” value ([10]; Day 6) was “attenuated”, the “increase in colonic myeloperoxidase (MPO) activity” value ([10]; Day 6) was “markedly attenuated” and the “Disease Activity Index (DAI)” value [10] was “reduced the intensity of the IBD manifestations”.

With `Oc1ccc(Nc2nc(-c3ccc(Cl)cc3)cs2)cc1` [Compound II] the “cellular levels of [3H]S1P” value ([1]; HUVECs) was “dose-dependent reductions in the cellular levels of S1P”, the pIC50 ([1]; HUVECs, read-out: drug concentration that decreases S1P formation by 50%) was 6.70 and the pIC50 [12] was 6.44. The “HL-60 cell proliferation of TNFα-stimulated cells” value [2] was “dose-dependent reductions in HL-60 cell proliferation” and the pIC50 [13] was 6.72.

Reference: patent US8324237B2, “Methods for the treatment and prevention of inflammatory diseases” (priority 2005, dated 2012)
